“And” between values parts separate entries of the source, which are not always exact repeats. Equal entries are not always repeated. The source made the active and inactive calls.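 How the source made its calls: active means compounds giving half or more protection of infected cells from virus-caused growth loss, again on retest; inactive means the rest.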
Test system: CEM cells HIV-1 protection, formazan growth assay
Assay: NCI AIDS Antiviral Assay
Settings: for IC50: measured here: growth of uninfected CEM cells
In short: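 Protection of CEM cells against HIV-1 measured as cell growth via soluble formazan read-out, with five concentrations tested on both infected and uninfected cells; failure to protect may reflect toxicity.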

| Structure (SMILES) | EC50 | IC50 | outcome |
| --- | --- | --- | --- |
| O=C(O)c1cscc1-c1cccc2ccccc12 | > 200 µM | 158 µM | – |
| O=c1cc(-c2c(O)cc(O)cc2O)oc2cc(O)cc(O)c12 | > 200 µM | > 200 µM | – |
| CC1CN=C(N(Cc2ccccc2)C(=O)Nc2ccc(Cl)c(Cl)c2)S1 (configuration not stated) | > 200 µM | 67.6 µM | – |
| COc1cc(C(=O)NO)ccc1O | > 8510 µM | 447 µM | – |
| CCOC(=O)CCC(NC(=O)c1ccc(Nc2nc3ccc(C(F)(F)F)cc3nc2-c2ccccc2)cc1)C(=O)OCC (configuration not stated) | > 200 µM | 141 µM | – |
| Cc1c2ccccc2c(CSC(=N)N)c2ccccc12 | > 200 µM | 0.112 µM | – |
| Clc1ccc2sc(-n3ccc4ccccc43)nc2c1 | > 200 µM | 170 µM | – |
| Cc1c(C)c(C)c2c(c1C)C/C2=N/O | > 100 µM | > 100 µM | – |
| CN(CCc1ccccn1)C(=S)N/N=C(\c1ccccc1)c1ccccn1 | > 0.2 µM | 0.0132 µM | – |
| N#CC(C#N)=CNC(N)=S | > 200 µM | > 200 µM | – |
| Cc1cc(NC(=O)c2ccc(N)cc2)ccc1N=Nc1ccc2c(O)c(N=Nc3ccc(S(=O)(=O)O)cc3C)c(S(=O)(=O)O)cc2c1 | 34.7 µM | > 200 µM | – |
| Oc1ccc(CCl)c2cccnc12 | > 562 µM | 10.2 µM | – |
| O=C(C#Cc1ccccc1)Nc1ccccc1CC(c1c[nH]c2ccccc12)c1c[nH]c2ccccc12 | > 26.3 µM | 5.25 µM | – |
| Fc1ccc(N=C/C=C/Nc2ccc(F)cc2)cc1 | – | – | inactive |
| N=c1ccn2c(n1)OC1C(O)C(CO)OC12 (configuration not stated) | 37.2 µM and > 2 µM | – | – |
| Cc1nc2ccccc2c(=O)n1NC(=O)c1ccccc1[N+](=O)[O-] | > 200 µM | > 200 µM | – |
| COC(=O)c1ccc(CCc2cc(O)c(Br)cc2O)cc1 | > 200 µM | 10 µM | – |
| CC[C@@H]1ON(C)[C@H]2CN(C)C(=O)[C@@H]12 | > 200 µM | > 200 µM | – |

| Structure (SMILES) | EC50 | IC50 | outcome |
| --- | --- | --- | --- |
| CC([C@H]1CCC2[C@@H]3CCC4C(=O)C(NC(=O)c5ccccc5)=CC[C@]4(C)C3CC[C@@]21C)N(C)C (some centres not stated) | > 4.37 µM | 1.32 µM | – |
| C=C(NC(=O)C(=C)NC(=O)c1csc(C2=NC3c4csc(n4)C4NC(=O)c5csc(n5)C(C(C)(O)C(C)O)NC(=O)C5CSC(=N5)/C(=C/C)NC(=O)C(C(C)O)NC(=O)c5csc(n5)C3(CC2)NC(=O)C(C)NC(=O)C(=C)NC(=O)C(C)NC(=O)C(C(C)CC)NC2C=Cc3c(C(C)O)cc(nc3C2O)C(=O)OC4C)n1)C(N)=O (configuration not stated) | 8.91 µM | 43.7 µM | – |
| O=S(=O)(O)CCS(=O)(=O)O | > 200 µM | > 200 µM | – |
| Cc1cc2c(cc1C)[n+]([O-])c(NCCCN(C)C)c(C#N)[n+]2[O-] | > 200 µM | 72.4 µM | – |
| CO[C@]12CCC(=O)N1C=Cc1c2[nH]c2ccccc12 | – | – | inactive |
| CCN1CCC(O)(c2ccc([N+](=O)[O-])cc2)C(C(=O)c2ccc([N+](=O)[O-])cc2)C1 (configuration not stated) | > 200 µM | 33.1 µM | – |
| NCCSSSSCCN | > 132 µM | 34.7 µM | – |
| CC(C)=CCC[C@@H](C)C1=C(O)C(N)=C(C)C(=O)C1=O | > 200 µM | 12 µM | – |
| CCc1cc2c(c3c1CCCC3=O)CC1(C2)Cc2cc(CC)c3c(c2C1)C(=O)CCC3 | > 200 µM | 138 µM | – |
| CC1CC(=O)Nc2ccc(Cl)cc2N1C(=O)CN1CCC(CCCCN(C)C)CC1 (configuration not stated) | > 251 µM | 129 µM | – |
| O=C1C=C(c2ccccc2)Sc2ccccc2N1 | > 89.1 µM | 47.9 µM | – |
| CS(=O)(=O)Oc1cccc(/C=N/N=C(\N)NO)c1 | > 214 µM | 36.3 µM | – |
| CSC(=S)Nc1cc(C)ccn1 | > 200 µM | 155 µM | – |
| CC1=NN2C(=O)C(C)SC2=NC(C)(C)C1 (configuration not stated) | > 1120 µM | > 1120 µM | – |
| O=C(Nc1cc(Cl)cc(Cl)c1)/C(Cc1nc2ccccc2[nH]c1=O)=N/NC(=O)c1ccncc1 | > 132 µM | > 132 µM | – |
| Cc1ccc(/C=C/C(=O)c2sc(C(N)=S)nc2C)cc1 | > 85.1 µM | > 85.1 µM | – |
| COc1ccc([C@@H]2CC(=O)N2)cc1 | > 200 µM | > 200 µM | – |

Reference: PubChem BioAssay AID179 (DTP/NCI, 2004)
